Values joined by “and” are separate entries in the source; they are usually repeats but may differ in a detail not shown here. Equal entries are not always repeated. Active and inactive are the calls of the source. No cut-off for these calls is given here.
Key:
Procathepsin L [1] = biological target: T1, Procathepsin L (Homo sapiens, UniProt P07711); experiment: Inhibition of human liver cathepsin L peincubated for 5 mins followed by Z-FR-MCA addition by spectrofluorimetric method
Target sequence in this assay (P07711 whole entry): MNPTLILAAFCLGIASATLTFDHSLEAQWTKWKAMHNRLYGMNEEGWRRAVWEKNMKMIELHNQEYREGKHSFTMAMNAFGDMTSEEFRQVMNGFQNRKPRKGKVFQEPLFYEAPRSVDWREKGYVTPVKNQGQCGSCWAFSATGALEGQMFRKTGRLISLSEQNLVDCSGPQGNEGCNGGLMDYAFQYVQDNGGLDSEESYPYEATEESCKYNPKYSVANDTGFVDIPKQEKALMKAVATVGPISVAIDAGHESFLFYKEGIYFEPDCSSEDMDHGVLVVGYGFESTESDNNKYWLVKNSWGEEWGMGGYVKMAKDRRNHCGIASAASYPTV

Procathepsin L [2] = biological target: T1, Procathepsin L; experiment: Reversible inhibition of human liver cathepsin L peincubated for 30 mins followed by addition of 3.5 uM of substrate Z-FR-MCA measured after 10 mins by spectrofluorimetric method
Target sequence in this assay (P07711 whole entry): as above

Procathepsin L [3] = biological target: T1, Procathepsin L; experiment: Reversible inhibition of human liver cathepsin L peincubated for 30 mins followed by addition of 9 uM of substrate Z-FR-MCA measured after 10 mins by spectrofluorimetric method
Target sequence in this assay (P07711 whole entry): as above

[4] = biological target: T2, Cathepsin L2 (Homo sapiens) (UniProt O60911); experiment: Inhibition of cathepsin V (unknown origin) at 25 uM peincubated for 5 mins followed by Z-FR-MCA addition by spectrofluorimetric method relative to control
T2 sequence (whole entry): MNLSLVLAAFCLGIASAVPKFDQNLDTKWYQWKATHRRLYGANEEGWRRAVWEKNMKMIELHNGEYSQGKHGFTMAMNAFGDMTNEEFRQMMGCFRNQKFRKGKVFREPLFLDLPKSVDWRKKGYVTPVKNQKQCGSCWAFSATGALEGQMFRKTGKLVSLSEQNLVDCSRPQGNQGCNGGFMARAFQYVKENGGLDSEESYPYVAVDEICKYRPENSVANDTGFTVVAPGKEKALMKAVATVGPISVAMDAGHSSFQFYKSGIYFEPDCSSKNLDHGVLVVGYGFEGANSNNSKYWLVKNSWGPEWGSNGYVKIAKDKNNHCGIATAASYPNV

Procathepsin L [5] = biological target: T1, Procathepsin L; experiment: Reversible inhibition of human liver cathepsin L peincubated for 30 mins followed by addition of 6 uM of substrate Z-FR-MCA measured after 10 mins by spectrofluorimetric method
Target sequence in this assay (P07711 whole entry): as the sequence (P07711 whole entry) above

Procathepsin L [6] = biological target: T1, Procathepsin L; experiment: Reversible inhibition of human liver cathepsin L peincubated for 30 mins followed by addition of 4 uM of substrate Z-FR-MCA measured after 10 mins by spectrofluorimetric method
Target sequence in this assay (P07711 whole entry): as the sequence (P07711 whole entry) above

[7] = biological target: T3, Cathepsin K (Homo sapiens) (UniProt P43235); experiment: Inhibition of cathepsin K (unknown origin) at 25 uM peincubated for 5 mins followed by Z-FR-MCA addition by spectrofluorimetric method relative to control
T3 sequence (whole entry): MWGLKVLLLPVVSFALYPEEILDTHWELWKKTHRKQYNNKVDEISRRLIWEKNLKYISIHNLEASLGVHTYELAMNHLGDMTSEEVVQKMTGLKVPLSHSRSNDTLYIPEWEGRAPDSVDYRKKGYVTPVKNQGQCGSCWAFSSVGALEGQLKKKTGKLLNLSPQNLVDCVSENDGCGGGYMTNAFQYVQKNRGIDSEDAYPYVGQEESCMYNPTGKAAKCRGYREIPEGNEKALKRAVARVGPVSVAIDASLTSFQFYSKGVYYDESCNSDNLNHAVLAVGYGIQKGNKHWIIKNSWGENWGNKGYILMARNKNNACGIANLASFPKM

Procathepsin L [8] = biological target: T1, Procathepsin L; experiment: Uncompetitive inhibition of cathepsin L (unknown origin) peincubated for 30 mins followed by substrate Z-FR-MCA addition measured after 10 mins by spectrofluorimetric method
Target sequence in this assay (P07711 whole entry): as the sequence (P07711 whole entry) above

Cathepsin K = biological target: T4, Cathepsin K (Homo sapiens, UniProt P43235); experiment: Inhibition of cathepsin K (unknown origin) peincubated for 5 mins followed by Z-FR-MCA addition by spectrofluorimetric method
T4 sequence (P43235 whole entry): T3 sequence (whole entry)

Procathepsin L [9] = biological target: T1, Procathepsin L; experiment: Inhibition of human liver cathepsin L at 25 uM peincubated for 5 mins followed by Z-FR-MCA addition by spectrofluorimetric method relative to control
Target sequence in this assay (P07711 114-333 limits assumed): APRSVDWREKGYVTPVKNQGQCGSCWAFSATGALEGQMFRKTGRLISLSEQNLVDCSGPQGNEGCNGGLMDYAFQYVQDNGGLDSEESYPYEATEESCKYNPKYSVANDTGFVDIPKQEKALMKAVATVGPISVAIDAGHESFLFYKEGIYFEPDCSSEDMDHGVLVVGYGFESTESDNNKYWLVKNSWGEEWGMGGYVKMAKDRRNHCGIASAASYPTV

Procathepsin L [10] = biological target: T1, Procathepsin L; experiment: Reversible inhibition of human liver cathepsin L peincubated for 30 mins followed by addition of 5 uM of substrate Z-FR-MCA measured after 10 mins by spectrofluorimetric method
Procathepsin L [11] = biological target: T1, Procathepsin L; experiment: Reversible inhibition of human liver cathepsin L peincubated for 30 mins followed by addition of 4.5 uM of substrate Z-FR-MCA measured after 10 mins by spectrofluorimetric method
Procathepsin L [12] = biological target: T1, Procathepsin L; experiment: Reversible inhibition of human liver cathepsin L peincubated for 30 mins followed by addition of 5.5 uM of substrate Z-FR-MCA measured after 10 mins by spectrofluorimetric method
Procathepsin L [13] = biological target: T1, Procathepsin L; experiment: Reversible inhibition of human liver cathepsin L peincubated for 30 mins followed by addition of 8 uM of substrate Z-FR-MCA measured after 10 mins by spectrofluorimetric method
Procathepsin L [14] = biological target: T1, Procathepsin L; experiment: Reversible inhibition of human liver cathepsin L peincubated for 30 mins followed by addition of 7 uM of substrate Z-FR-MCA measured after 10 mins by spectrofluorimetric method

Compound | inhibition [4] [%] | inhibition [7] [%] | inhibition (Procathepsin L [9]) | further results
CCCCCCCC1OC1C(OC(=O)c1ccc(I)cc1)C(=O)NC1CCCCC1 (stereo not given) |  |  |  | IC50 (Procathepsin L [1]): 2200 nM and 4280 nM
CCCCCCC[C@H]1O[C@@H]1C(OC(=O)c1ccc(I)cc1)C(=O)NC1CCCCC1 (mixture of isomers) | 30.8 | 78 | 98.5% | IC50 (Procathepsin L [2]): 16.9 µM; IC50 (Procathepsin L [3]): 6.09 µM; IC50 (Procathepsin L [5]): 5.26 µM; IC50 (Procathepsin L [6]): 11.5 µM; Ki (Procathepsin L [8]): 1330 nM; IC50 (Cathepsin K): 5.72 µM; IC50 (Procathepsin L [10]): 9.78 µM; IC50 (Procathepsin L [11]): 11.1 µM; IC50 (Procathepsin L [12]): 5.13 µM; IC50 (Procathepsin L [13]): 5.75 µM; IC50 (Procathepsin L [14]): 7.17 µM
CCCCCCC[C@H]1O[C@@H]1C(OC(=O)c1ccccc1)C(=O)NC(C)(C)C (mixture of isomers) | 43.5 | 69.1 | 86.4% | IC50 (Cathepsin K): 12.5 µM
CCCCCCCCNC(=O)C(OC(=O)CCCCCBr)[C@H]1O[C@@H]1c1ccccc1[N+](=O)[O-] (mixture of isomers) |  |  | 84% | IC50 (Procathepsin L [1]): 8550 nM
CC(C)(C)NC(=O)C(OC(=O)c1ccccc1)[C@H]1O[C@@H]1c1ccccc1[N+](=O)[O-] (mixture of isomers) | 21.3 | 21.5 | 10.5% | 
CCCC(=O)OC(C(=O)NCc1ccccc1)[C@H]1O[C@@H]1c1ccccc1[N+](=O)[O-] (mixture of isomers) | 3.9 | 0 | 2.9% | 
CCCCCCC[C@H]1O[C@@H]1C(OC(=O)C1CCCCC1)C(=O)NC(C)(C)C (mixture of isomers) |  |  | inactive | 
CCCCCCC[C@H]1O[C@@H]1C(OC(=O)C1CCCCC1)C(=O)NCCCC (mixture of isomers) |  |  | 70% | 
CCCCCCC[C@H]1O[C@@H]1C(OC(=O)CC(C)C)C(=O)NCCCC (mixture of isomers) |  |  | inactive | 
CCCCCCC[C@H]1O[C@@H]1C(OC(=O)CC(C)C)C(=O)NCc1ccccc1 (mixture of isomers) |  |  | 43% | 
CCCCCCC[C@H]1O[C@@H]1C(OC(=O)CCCCCBr)C(=O)NC(C)(C)C (mixture of isomers) |  |  | inactive | 
CCCCCCC[C@H]1O[C@@H]1C(OC(=O)CCCCCBr)C(=O)NC1CCCCC1 (mixture of isomers) |  |  | 69% | 
CCCCCCC[C@H]1O[C@@H]1C(OC(=O)CCCCCBr)C(=O)NCCCC (mixture of isomers) |  |  | 69% | 
CCCCCCC[C@H]1O[C@@H]1C(OC(=O)[C@H]1CCCN1C(=O)OC(C)(C)C)C(=O)NC(C)(C)C (mixture of isomers) | 0 | 38.7 | 67.3% | 
CCCCCCC[C@H]1O[C@@H]1C(OC(=O)c1ccc(I)cc1)C(=O)NC(C)(C)C (mixture of isomers) |  |  | 65% | 
CCCCCCC[C@H]1O[C@@H]1C(OC(=O)c1ccc(I)cc1)C(=O)NCCCC (mixture of isomers) |  |  | 74% | 
CCCCCCC[C@H]1O[C@@H]1C(OC(=O)c1ccccc1)C(=O)NCC(=O)OC (mixture of isomers) |  |  | inactive | 
CCCCCCCC1OC1C(OC(=O)c1ccc(I)cc1)C(=O)NC1CCCCC1 (mixture of isomers; form 1) |  |  |  | IC50 (Procathepsin L [1]): 1130 nM
CCCCCCCC1OC1C(OC(=O)c1ccc(I)cc1)C(=O)NC1CCCCC1 (mixture of isomers; form 2) |  |  |  | IC50 (Procathepsin L [1]): 2020 nM
CCCCCCC[C@H]1O[C@@H]1C(OC(=O)[C@@H]1CCCN1C(=O)OC(C)(C)C)C(=O)NC(C)(C)C (single isomer, unassigned) | 0 | 39.3 | 52.6% | 
